From patent US9637483B2, “Heterocyclic compound” (TAKEDA PHARMACEUTICAL COMPANY LIMITED, priority 2013, dated 2017)

Tests used:
Format in all cases: biochemical
TYK2 = target: T1, TYK2 (Homo sapiens, UniProt P29597); test: TYK2 enzyme inhibition test (LANCE method); conditions: 1 μM test compound; for inhibition at 1 µM: read-out: TYK2 enzyme inhibitory activity (%, 1 μM)
T1 construct: purchased Invitrogen
How it was run: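 Recombinant TYK2 (375 ng/mL working solution) with ULight-JAK1 peptide (300 nM working solution) and ATP (30 μM working solution) in HEPES pH 7.5 buffer with MgCl2, EGTA, DTT, Tween20, BSA, reacted 1 h at RT. EDTA-stopped, Eu-anti-phosphotyrosine TR-FRET read at 665 nm; inhibition relative to enzyme-free wells as 100%.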

JAK3 = target: T2, JAK3 (Homo sapiens, UniProt P52333); test: JAK3 enzyme inhibition test (LANCE method); conditions: 1 μM test compound; for inhibition at 1 µM: read-out: JAK3 enzyme inhibitory activity (%, 1 μM)
T2 construct: purchased Invitrogen
T2 sequence (P52333 1-1124): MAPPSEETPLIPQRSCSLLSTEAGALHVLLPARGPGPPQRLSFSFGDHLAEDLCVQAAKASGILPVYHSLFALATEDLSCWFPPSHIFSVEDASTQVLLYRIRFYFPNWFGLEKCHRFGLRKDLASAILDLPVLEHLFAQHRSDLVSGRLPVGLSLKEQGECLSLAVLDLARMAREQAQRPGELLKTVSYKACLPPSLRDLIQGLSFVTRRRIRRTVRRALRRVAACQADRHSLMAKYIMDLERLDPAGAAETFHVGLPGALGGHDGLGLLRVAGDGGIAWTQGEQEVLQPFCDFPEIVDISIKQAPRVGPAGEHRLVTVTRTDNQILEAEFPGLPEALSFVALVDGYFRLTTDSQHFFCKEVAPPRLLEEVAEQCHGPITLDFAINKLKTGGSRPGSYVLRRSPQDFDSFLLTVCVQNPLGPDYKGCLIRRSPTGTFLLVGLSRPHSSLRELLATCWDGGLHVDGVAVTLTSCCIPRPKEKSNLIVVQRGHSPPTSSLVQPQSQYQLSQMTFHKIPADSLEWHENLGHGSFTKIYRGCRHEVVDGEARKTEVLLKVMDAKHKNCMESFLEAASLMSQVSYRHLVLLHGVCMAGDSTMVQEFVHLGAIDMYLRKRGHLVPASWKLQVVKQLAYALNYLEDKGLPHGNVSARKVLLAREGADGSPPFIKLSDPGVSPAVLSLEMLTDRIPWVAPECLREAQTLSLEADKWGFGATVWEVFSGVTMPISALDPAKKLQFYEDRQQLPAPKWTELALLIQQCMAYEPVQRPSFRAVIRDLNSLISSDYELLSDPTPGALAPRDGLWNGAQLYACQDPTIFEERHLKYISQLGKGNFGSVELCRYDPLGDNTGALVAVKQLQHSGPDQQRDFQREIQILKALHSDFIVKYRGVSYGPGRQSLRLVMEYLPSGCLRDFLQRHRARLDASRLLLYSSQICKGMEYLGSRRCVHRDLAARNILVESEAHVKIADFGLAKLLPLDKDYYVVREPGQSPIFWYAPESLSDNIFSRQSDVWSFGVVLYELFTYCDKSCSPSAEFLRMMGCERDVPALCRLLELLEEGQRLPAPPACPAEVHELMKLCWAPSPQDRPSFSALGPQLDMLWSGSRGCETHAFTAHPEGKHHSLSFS
How it was run: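 Recombinant JAK3 (12 ng/mL solution) with ULight-JAK1 peptide (300 nM solution) and ATP (15 μM solution) in HEPES pH 7.5 buffer, 1 h at room temperature. EDTA stop with Eu-anti-phosphotyrosine antibody; TR-FRET at 665 nm. Inhibition relative to enzyme-free wells as 100%.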

JAK1 = target: T3, JAK1 (Homo sapiens, UniProt P23458); test: JAK1 enzyme inhibition test (LANCE method); conditions: 1 μM test compound; for inhibition at 1 µM: read-out: JAK1 enzyme inhibitory activity (%, 1 μM)
T3 construct: purchased Invitrogen
T3 sequence (P23458 whole entry): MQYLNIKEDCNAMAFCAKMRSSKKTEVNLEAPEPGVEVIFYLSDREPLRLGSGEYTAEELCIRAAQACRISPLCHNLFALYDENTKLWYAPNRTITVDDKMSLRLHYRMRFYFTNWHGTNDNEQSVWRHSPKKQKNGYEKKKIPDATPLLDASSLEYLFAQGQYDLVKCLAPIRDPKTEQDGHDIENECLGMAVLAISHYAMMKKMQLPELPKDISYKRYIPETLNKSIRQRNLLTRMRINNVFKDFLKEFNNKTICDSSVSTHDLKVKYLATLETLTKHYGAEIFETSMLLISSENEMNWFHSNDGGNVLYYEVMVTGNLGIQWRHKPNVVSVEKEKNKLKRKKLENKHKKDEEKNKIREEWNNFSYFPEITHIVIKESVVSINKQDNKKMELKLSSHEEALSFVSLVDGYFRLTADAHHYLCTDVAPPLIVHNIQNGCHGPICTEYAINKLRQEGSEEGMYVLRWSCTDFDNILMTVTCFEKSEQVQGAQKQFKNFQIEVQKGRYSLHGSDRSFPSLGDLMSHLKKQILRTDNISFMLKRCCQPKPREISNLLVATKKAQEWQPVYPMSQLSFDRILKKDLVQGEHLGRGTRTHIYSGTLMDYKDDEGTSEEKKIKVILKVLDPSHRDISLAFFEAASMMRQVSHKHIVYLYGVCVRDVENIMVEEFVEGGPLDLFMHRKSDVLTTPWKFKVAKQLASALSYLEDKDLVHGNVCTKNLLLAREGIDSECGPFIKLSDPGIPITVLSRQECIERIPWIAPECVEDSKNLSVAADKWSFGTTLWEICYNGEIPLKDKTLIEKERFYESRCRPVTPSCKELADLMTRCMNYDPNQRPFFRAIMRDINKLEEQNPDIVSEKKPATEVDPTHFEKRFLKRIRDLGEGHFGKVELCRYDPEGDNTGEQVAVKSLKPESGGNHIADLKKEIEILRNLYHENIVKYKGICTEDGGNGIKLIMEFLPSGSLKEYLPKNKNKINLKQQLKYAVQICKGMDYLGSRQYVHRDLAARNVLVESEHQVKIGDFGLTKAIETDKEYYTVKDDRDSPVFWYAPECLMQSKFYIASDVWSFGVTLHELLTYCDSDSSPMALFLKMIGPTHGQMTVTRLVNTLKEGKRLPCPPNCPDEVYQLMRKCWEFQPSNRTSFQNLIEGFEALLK
How it was run: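 TR-FRET (LANCE) with ULight-JAK1 peptide (300 nM working solution) and ATP (150 μM working solution) in HEPES pH 7.5, MgCl2, EGTA, DTT buffer; 1 h at room temperature. EDTA stop plus Eu-anti-phosphotyrosine antibody, 665 nm read after 1 h. Inhibition relative to enzyme-free wells as 100%.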

JAK2 = target: T4, JAK2 (Homo sapiens, UniProt O60674); test: JAK2 enzyme inhibition test (LANCE method); conditions: 1 μM test compound; for inhibition at 1 µM: read-out: JAK2 enzyme inhibitory activity (%, 1 μM)
T4 construct: purchased Invitrogen
T4 sequence (O60674 whole entry): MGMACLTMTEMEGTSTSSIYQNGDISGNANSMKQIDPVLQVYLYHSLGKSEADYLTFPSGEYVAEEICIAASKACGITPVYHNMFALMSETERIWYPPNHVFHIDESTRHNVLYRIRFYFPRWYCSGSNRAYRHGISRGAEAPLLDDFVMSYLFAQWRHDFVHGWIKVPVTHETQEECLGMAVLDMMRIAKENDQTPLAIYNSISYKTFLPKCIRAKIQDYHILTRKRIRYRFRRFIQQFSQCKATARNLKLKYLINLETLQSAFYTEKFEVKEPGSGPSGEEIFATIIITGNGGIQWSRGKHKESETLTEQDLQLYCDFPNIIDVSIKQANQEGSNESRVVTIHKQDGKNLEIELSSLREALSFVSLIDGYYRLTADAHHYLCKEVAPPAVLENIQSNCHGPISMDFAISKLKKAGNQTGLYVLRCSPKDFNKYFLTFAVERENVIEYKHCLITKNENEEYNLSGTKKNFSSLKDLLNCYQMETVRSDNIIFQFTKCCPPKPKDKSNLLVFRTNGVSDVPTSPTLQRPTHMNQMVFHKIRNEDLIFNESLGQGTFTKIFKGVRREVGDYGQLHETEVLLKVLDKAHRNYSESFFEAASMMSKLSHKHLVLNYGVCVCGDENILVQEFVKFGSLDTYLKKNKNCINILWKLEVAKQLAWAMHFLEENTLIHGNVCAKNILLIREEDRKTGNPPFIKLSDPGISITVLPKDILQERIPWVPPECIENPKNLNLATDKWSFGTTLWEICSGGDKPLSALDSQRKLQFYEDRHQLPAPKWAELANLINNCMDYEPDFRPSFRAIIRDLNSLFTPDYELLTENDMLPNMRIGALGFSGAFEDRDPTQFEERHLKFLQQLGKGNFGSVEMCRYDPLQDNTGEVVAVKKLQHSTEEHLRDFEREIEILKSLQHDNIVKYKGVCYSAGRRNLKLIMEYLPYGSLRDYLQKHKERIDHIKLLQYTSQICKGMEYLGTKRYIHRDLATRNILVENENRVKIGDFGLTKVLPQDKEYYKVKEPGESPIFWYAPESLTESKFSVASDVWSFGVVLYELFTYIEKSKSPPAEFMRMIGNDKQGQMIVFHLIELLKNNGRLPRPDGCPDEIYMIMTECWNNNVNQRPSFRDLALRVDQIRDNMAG
How it was run: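 Recombinant JAK2 (6 ng/mL solution) phosphorylated ULight-JAK1 peptide (300 nM solution) with ATP (45 μM solution) in pH 7.5 HEPES/MgCl2/DTT buffer for 1 hr at room temperature. After EDTA stop and europium anti-phosphotyrosine antibody for 1 hr, TR-FRET read at 665 nm; inhibition relative to enzyme-free wells as 100%.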

T1 sequence (P29597 whole entry): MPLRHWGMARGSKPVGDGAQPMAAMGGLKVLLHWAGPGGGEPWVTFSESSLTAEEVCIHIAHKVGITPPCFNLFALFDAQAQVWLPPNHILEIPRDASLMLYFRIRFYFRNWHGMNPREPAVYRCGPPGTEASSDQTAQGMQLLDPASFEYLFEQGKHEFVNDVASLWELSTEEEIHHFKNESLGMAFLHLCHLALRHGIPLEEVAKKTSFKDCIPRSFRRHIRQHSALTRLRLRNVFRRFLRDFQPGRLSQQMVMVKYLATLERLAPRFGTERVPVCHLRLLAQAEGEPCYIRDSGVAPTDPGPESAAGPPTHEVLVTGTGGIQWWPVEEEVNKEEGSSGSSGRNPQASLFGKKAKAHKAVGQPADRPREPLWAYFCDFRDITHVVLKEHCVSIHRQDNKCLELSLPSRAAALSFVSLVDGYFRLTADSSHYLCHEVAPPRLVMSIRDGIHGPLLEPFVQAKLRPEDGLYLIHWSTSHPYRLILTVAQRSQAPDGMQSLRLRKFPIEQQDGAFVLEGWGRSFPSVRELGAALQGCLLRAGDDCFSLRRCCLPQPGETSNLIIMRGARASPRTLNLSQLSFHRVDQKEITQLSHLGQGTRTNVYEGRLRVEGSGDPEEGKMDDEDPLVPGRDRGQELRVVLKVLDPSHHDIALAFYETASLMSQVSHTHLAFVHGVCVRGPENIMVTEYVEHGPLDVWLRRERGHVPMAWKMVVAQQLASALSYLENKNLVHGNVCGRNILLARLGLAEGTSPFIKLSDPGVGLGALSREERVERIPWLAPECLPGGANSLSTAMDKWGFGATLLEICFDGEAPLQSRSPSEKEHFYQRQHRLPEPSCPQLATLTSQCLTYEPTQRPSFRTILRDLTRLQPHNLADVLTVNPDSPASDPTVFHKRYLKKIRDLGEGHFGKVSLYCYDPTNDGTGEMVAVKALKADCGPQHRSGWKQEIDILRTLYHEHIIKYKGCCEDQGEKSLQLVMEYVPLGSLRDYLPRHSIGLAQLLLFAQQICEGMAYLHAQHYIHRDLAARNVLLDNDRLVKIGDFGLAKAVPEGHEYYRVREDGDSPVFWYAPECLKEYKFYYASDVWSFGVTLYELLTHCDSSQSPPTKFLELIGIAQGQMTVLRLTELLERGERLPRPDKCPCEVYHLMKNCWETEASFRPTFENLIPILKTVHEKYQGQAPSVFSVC

Compound	inhibition at 1 µM (TYK2)	inhibition at 1 µM (JAK3)	inhibition at 1 µM (JAK1)	inhibition at 1 µM (JAK2)	JAK1 enzyme inhibitory activity (%, 1 μM) (JAK1)	TYK2 enzyme inhibitory activity (%, 1 μM) (TYK2; 1 µM)	JAK3 enzyme inhibitory activity (%, 1 μM) (JAK3; 1 µM)	JAK2 enzyme inhibitory activity (%, 1 μM) (JAK2; 1 µM)
COC1(c2cc(-c3cn(C(C4CC4)C4CC4)c(=O)c4c(N)n[nH]c34)nn2C)CN(S(=O)(=O)C(C)C)C1 [Example 90, 3-amino-5-(dicyclopropylmethyl)-7-(5-(1-(isopropylsulfonyl)-3-methoxyazetidin-3-yl)-1-methyl-1H-pyrazol-3-yl)-1,5-dihydro-4H-pyrazolo[4,3-c]pyridin-4-one]	100%	99%	96%	99%	–	–	–	–
C[C@H](C1CC1)n1cc(-c2cc(C(C)(C)O)n(C)n2)c2[nH]nc(N)c2c1=O [Example 91, 3-amino-5-((1R)-1-cyclopropylethyl)-7-(5-(2-hydroxypropan-2-yl)-1-methyl-1H-pyrazol-3-yl)-1,5-dihydro-4H-pyrazolo[4,3-c]pyridin-4-one]	99%	97%	96%	88%	–	–	–	–
CC(C)N1CCN(c2cc(-c3cn([C@@H](C)C4CC4)c(=O)c4c(N)n[nH]c34)nn2C)CC1=O [Example 92, 3-amino-5-((1S)-1-cyclopropylethyl)-7-(5-(4-isopropyl-3-oxopiperazin-1-yl)-1-methyl-1H-pyrazol-3-yl)-1,5-dihydro-4H-pyrazolo[4,3-c]pyridin-4-one]	99%	99%	100%	100%	–	–	–	–
C[C@@H](C1CC1)n1cc(-c2cc(N3CCC(O)(C(F)(F)F)CC3)n(C)n2)c2[nH]nc(N)c2c1=O [Example 94, 3-amino-5-((1S)-1-cyclopropylethyl)-7-(5-(4-hydroxy-4-(trifluoromethyl)piperidin-1-yl)-1-methyl-1H-pyrazol-3-yl)-1,5-dihydro-4H-pyrazolo[4,3-c]pyridin-4-one]	99%	100%	100%	100%	–	–	–	–
C[C@@H](C1CC1)n1cc(-c2cc(N3CCS(=O)(=O)C(C)(C)C3)n(C)n2)c2[nH]nc(N)c2c1=O [Example 95, 3-amino-5-((1S)-1-cyclopropylethyl)-7-(5-(2,2-dimethyl-1,1-dioxidothiomorpholin-4-yl)-1-methyl-1H-pyrazol-3-yl)-1,5-dihydro-4H-pyrazolo[4,3-c]pyridin-4-one]	99%	100%	100%	100%	–	–	–	–
C[C@@H](C1CC1)n1cc(-c2cc(N3CCS(=O)(=O)CC3)n(C)n2)c2[nH]nc(N)c2c1=O [Example 96, 3-amino-5-((1S)-1-cyclopropylethyl)-7-(5-(1,1-dioxidothiomorpholin-4-yl)-1-methyl-1H-pyrazol-3-yl)-1,5-dihydro-4H-pyrazolo[4,3-c]pyridin-4-one]	100%	100%	99%	100%	–	–	–	–
COC1(c2cc(-c3cn([C@@H](C)C4CC4)c(=O)c4c(N)n[nH]c34)nn2C)CN(C(=O)C(C)C)C1 [Example 97, 3-amino-5-((1S)-1-cyclopropylethyl)-7-(5-(1-isobutyryl-3-methoxyazetidin-3-yl)-1-methyl-1H-pyrazol-3-yl)-1,5-dihydro-4H-pyrazolo[4,3-c]pyridin-4-one]	100%	99%	97%	99%	–	–	–	–
COC1(c2cc(-c3cn([C@@H](C)C4CC4)c(=O)c4c(N)n[nH]c34)nn2C)CN(S(=O)(=O)C(C)C)C1 [Example 98, 3-amino-5-((1S)-1-cyclopropylethyl)-7-(5-(1-(isopropylsulfonyl)-3-methoxyazetidin-3-yl)-1-methyl-1H-pyrazol-3-yl)-1,5-dihydro-4H-pyrazolo[4,3-c]pyridin-4-one]	100%	100%	97%	100%	–	–	–	–

More lines, now with the values ahead:

inhibition at 1 µM (TYK2)	inhibition at 1 µM (JAK3)	inhibition at 1 µM (JAK1)	inhibition at 1 µM (JAK2)	JAK1 enzyme inhibitory activity (%, 1 μM) (JAK1)	TYK2 enzyme inhibitory activity (%, 1 μM) (TYK2; 1 µM)	JAK3 enzyme inhibitory activity (%, 1 μM) (JAK3; 1 µM)	JAK2 enzyme inhibitory activity (%, 1 μM) (JAK2; 1 µM)	Compound
99%	97%	83%	85%	–	–	–	–	CC(n1cc(-c2cc(N3CCOCC3)n(C)n2)c2[nH]nc(N)c2c1=O)C(C)(C)O (stereo not drawn) [Example 99, 3-amino-5-(3-hydroxy-3-methylbutan-2-yl)-7-(1-methyl-5-(morpholin-4-yl)-1H-pyrazol-3-yl)-1,5-dihydro-4H-pyrazolo[4,3-c]pyridin-4-one]
96%	86%	82%	65%	–	–	–	–	CC(C)[C@@H](C)n1cc(-c2cc(C(C)(C)O)n(C)n2)c2[nH]nc(N)c2c1=O [Example 100, 3-amino-7-(5-(2-hydroxypropan-2-yl)-1-methyl-1H-pyrazol-3-yl)-5-((2R)-3-methylbutan-2-yl)-1,5-dihydro-4H-pyrazolo[4,3-c]pyridin-4-one]
100%	99%	96%	97%	–	–	–	–	CC(C)[C@H](C)n1cc(-c2cc(N(C)C(C)C)n(C)n2)c2[nH]nc(N)c2c1=O [Example 101, 3-amino-7-(5-(isopropyl(methyl)amino)-1-methyl-1H-pyrazol-3-yl)-5-((2S)-3-methylbutan-2-yl)-1,5-dihydro-4H-pyrazolo[4,3-c]pyridin-4-one]
100%	99%	97%	98%	–	–	–	–	CC(C)[C@H](C)n1cc(-c2cc(N3CCN(S(=O)(=O)C(C)C)CC3)n(C)n2)c2[nH]nc(N)c2c1=O [Example 102, 3-amino-7-(5-(4-(isopropylsulfonyl)piperazin-1-yl)-1-methyl-1H-pyrazol-3-yl)-5-((2S)-3-methylbutan-2-yl)-1,5-dihydro-4H-pyrazolo[4,3-c]pyridin-4-one]
96%	97%	–	93%	51%	–	–	–	CC(C)[C@H](C)n1cc(-c2cc(N3CCCC3CN(C)C)n(C)n2)c2[nH]nc(N)c2c1=O (stereo partly drawn) [Example 103, 3-amino-7-(5-(2-((dimethylamino)methyl)pyrrolidin-1-yl)-1-methyl-1H-pyrazol-3-yl)-5-((2S)-3-methylbutan-2-yl)-1,5-dihydro-4H-pyrazolo[4,3-c]pyridin-4-one]
–	–	–	–	72%	100%	98%	96%	CC(C)[C@H](C)n1cc(-c2cc(N3CCCC3CN(C)C)n(C)n2)c2[nH]nc(N)c2c1=O (stereo partly drawn) [Example 104, 3-amino-7-(5-(2-((dimethylamino)methyl)pyrrolidin-1-yl)-1-methyl-1H-pyrazol-3-yl)-5-((2S)-3-methylbutan-2-yl)-1,5-dihydro-4H-pyrazolo[4,3-c]pyridin-4-one]
99%	99%	97%	99%	–	–	–	–	CC(C)[C@H](C)n1cc(-c2cc(N3CC4(COC4)C3)n(C)n2)c2[nH]nc(N)c2c1=O [Example 105, 3-amino-5-((2S)-3-methylbutan-2-yl)-7-(1-methyl-5-(2-oxa-6-azaspiro[3.3]hept-6-yl)-1H-pyrazol-3-yl)-1,5-dihydro-4H-pyrazolo[4,3-c]pyridin-4-one]
